Source: patent publication EP3046573B1, “AMYLIN ANALOGUES” (Zealand Pharma A/S, priority 2013, dated 2015)
Read-outs that look alike come from different tables or passages of the source. Numbered stars: 1 amine (or outer) side, 2 acyl side, 3 side chain; on linkers, the order of the positions; unused ones are H or OH. Bridge positions count the residues as written; N and C are the ends. Square brackets hold non-standard residues; d marks the D form. Peptide text beside a SMILES is read from it. * marks the point of attachment. C20 diacid = O=C(O)CCCCCCCCCCCCCCCCCCC(=O)*; γGlu = O=C(O)[C@H](CCC(=O)[*:2])N[*:1]; NMeI = CC[C@H](C)[C@H](NC)C(=O)O; Dap = NC[C@H](N)C(=O)O; Sar = CNCC(=O)O

Tests used:
[1] = biological target: T1, human calcitonin receptor (hCTR2) (Homo sapiens, UniProt P30988); assay: hCTR2 assay: induction of cAMP (AlphaScreen cAMP Assay kit) in COS7 cells expressing hCTR2; format: cell-based
T1 construct: expressed in transfected cells
T1 sequence (P30988 25-474): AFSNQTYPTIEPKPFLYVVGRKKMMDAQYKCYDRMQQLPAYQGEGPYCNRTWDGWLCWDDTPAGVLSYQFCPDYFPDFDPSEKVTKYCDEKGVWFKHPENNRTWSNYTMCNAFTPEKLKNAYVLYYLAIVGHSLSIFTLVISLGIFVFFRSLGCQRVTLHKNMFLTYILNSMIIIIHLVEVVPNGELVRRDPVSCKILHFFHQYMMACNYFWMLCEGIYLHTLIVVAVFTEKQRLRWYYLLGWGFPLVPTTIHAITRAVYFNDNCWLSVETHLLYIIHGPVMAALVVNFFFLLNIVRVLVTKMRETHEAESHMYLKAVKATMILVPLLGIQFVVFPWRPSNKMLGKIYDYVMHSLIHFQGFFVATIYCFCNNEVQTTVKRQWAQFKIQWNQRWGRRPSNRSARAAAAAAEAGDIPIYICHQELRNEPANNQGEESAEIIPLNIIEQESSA
How it was run: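 Stable RAMP-naive COS7 clone expressing hCTR2 was stimulated with increasing peptide concentrations in Tyrode buffer (pH 7.4) with 100 µM IBMX and 0.1% casein for 15 min at 37° C. Cells were lysed and cAMP measured by AlphaScreen. EC50 and efficacy relative to pramlintide came from 4PL curve fits.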

[2] = Solubility assessment (turbidity absorbance at 325 nm); format: physicochemical; conditions: stock 2 mg/ml diluted 1:1, ambient temperature (typically 25°C), n=1; for Solubility, Acetate buffer pH 4: 100 mM acetate buffer pH 4.0; for Solubility, Acetate buffer pH 5: 100 mM acetate buffer pH 5.0; for Solubility, Histidine buffer pH 6: 100 mM histidine buffer pH 6.0; for Solubility, Histidine buffer pH 7: 100 mM histidine buffer pH 7.0; for Solubility, Phosphate buffer pH 6: 100 mM phosphate buffer pH 6.0; for Solubility, Phosphate buffer pH 7: 100 mM phosphate buffer pH 7.0; for Solubility, Phosphate buffer pH 7.5: 100 mM phosphate buffer pH7.5
How it was run: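 Peptide stock (2 mg/ml) in water acidified to pH 2.5 with HCl was diluted 1:1 into 100 mM acetate (pH 4.0, 5.0), histidine (pH 6.0, 7.0) or phosphate (pH 6.0, 7.0, 7.5) buffer. A280 and A325 were read at about 25°C, n=1. A325 ≤ 0.02 meant solubility ≥ 1 mg/ml.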

[3] = cAMP induction in COS7 cells expressing hCTR2, average of a minimum of 3 determinations, read-out: hCTR2 EC50

SMILES | EC50 [1, 3] | Solubility, Acetate buffer pH 4 [2] | Solubility, Acetate buffer pH 5 [2] | Solubility, Histidine buffer pH 6 [2] | Solubility, Histidine buffer pH 7 [2] | Solubility, Phosphate buffer pH 6 [2] | Solubility, Phosphate buffer pH 7 [2] | Solubility, Phosphate buffer pH 7.5 [2] | EC50 [1]
CC[C@H](C)[C@@H](C(=O)N[C@@H](CC(C)C)C(=O)N[C@H](CO)C(=O)N[C@@H](CO)C(=O)N[C@H](C(=O)N[C@@H](CC(N)=O)C(=O)N[C@H](C(=O)NCC(=O)N[C@@H](CO)C(=O)N[C@@H](CC(N)=O)C(=O)N[C@H](C(=O)N1CCC[C@H]1C(N)=O)[C@@H](C)O)C(C)C)[C@@H](C)O)N(C)C(=O)CN(C)C(=O)[C@H](Cc1ccccc1)NC(=O)[C@H](CC(N)=O)NC(=O)[C@H](CC(N)=O)NC(=O)[C@H](CO)NC(=O)[C@H](CO)NC(=O)[C@H](CCCNC(=N)N)NC(=O)[C@H](Cc1c[nH]cn1)NC(=O)[C@H](CC(C)C)NC(=O)[C@H](Cc1ccccc1)NC(=O)[C@H](CCC(=O)O)NC(=O)[C@H](C)NC(=O)[C@H](CC(C)C)NC(=O)[C@H](CCCNC(=N)N)NC(=O)[C@H](CCC(N)=O)NC(=O)[C@@H](NC(=O)[C@H](C)NC(=O)[C@@H]1CSSC[C@H](NC(=O)[C@H](CCCCN)NC(=O)CC[C@H](NC(=O)CCCCCCCCCCCCCCCCCCC(=O)O)C(=O)O)C(=O)N[C@@H](CC(N)=O)C(=O)N[C@@H]([C@@H](C)O)C(=O)N[C@@H](C)C(=O)N[C@@H]([C@@H](C)O)C(=O)N1)[C@@H](C)O [Compound 70, [19CD]-isoGlu-KC()NTATC()ATQRLAEFLHRSSNNF-Gly(Me)-Ile(Me)-L-DSer-STNVGSNTP-NH2] ({C20 diacid-γGlu}-KCNTATCATQRLAEFLHRSSNNF[Sar][NMeI]L[dS]STNVGSNTP-NH2; disulfide 2-7) | 110 pM | SS (SS indicates solubility ≥ 1mg/ml) | SS (SS indicates solubility ≥ 1mg/ml) | SS (SS indicates solubility ≥ 1mg/ml) | SS (SS indicates solubility ≥ 1mg/ml) | SS (SS indicates solubility ≥ 1mg/ml) | SS (SS indicates solubility ≥ 1mg/ml) | SS (SS indicates solubility ≥ 1mg/ml) | –
CC[C@H](C)[C@@H](C(=O)N[C@@H](CC(C)C)C(=O)N[C@@H](CO)C(=O)N[C@@H](CO)C(=O)N[C@H](C(=O)N[C@@H](CC(N)=O)C(=O)N[C@H](C(=O)NCC(=O)N[C@@H](CO)C(=O)N[C@@H](CC(N)=O)C(=O)N[C@H](C(=O)N1CCC[C@H]1C(N)=O)[C@@H](C)O)C(C)C)[C@@H](C)O)N(C)C(=O)[C@H](C)NC(=O)CN(C)C(=O)[C@@H](Cc1ccccc1)NC(=O)[C@H](CC(N)=O)NC(=O)[C@H](CC(N)=O)NC(=O)[C@H](CO)NC(=O)[C@H](CO)NC(=O)[C@H](CCCNC(=N)N)NC(=O)[C@H](Cc1c[nH]cn1)NC(=O)[C@H](CC(C)C)NC(=O)[C@H](Cc1ccccc1)NC(=O)[C@H](CCC(=O)O)NC(=O)[C@H](C)NC(=O)[C@H](CC(C)C)NC(=O)[C@H](CCCNC(=N)N)NC(=O)[C@H](CCC(N)=O)NC(=O)[C@@H](NC(=O)[C@H](C)NC(=O)[C@@H]1CSSC[C@H](NC(=O)[C@H](CCCCN)NC(=O)CC[C@H](NC(=O)CCCCCCCCCCCCCCCCCCC(=O)O)C(=O)O)C(=O)N[C@@H](CC(N)=O)C(=O)N[C@@H]([C@@H](C)O)C(=O)N[C@@H](C)C(=O)N[C@@H]([C@@H](C)O)C(=O)N1)[C@@H](C)O [Compound 71, [19CD]-isoGlu-KC()NTATC()ATQRLAEFLHRSSNN-DPhe-Gly(Me)-A-Ile(Me)-LSSTNVGSNTP-NH2] ({C20 diacid-γGlu}-KCNTATCATQRLAEFLHRSSNN[dF][Sar]A[NMeI]LSSTNVGSNTP-NH2; disulfide 2-7) | – | SS (SS indicates solubility ≥ 1mg/ml) | SS (SS indicates solubility ≥ 1mg/ml) | SS (SS indicates solubility ≥ 1mg/ml) | SS (SS indicates solubility ≥ 1mg/ml) | SS (SS indicates solubility ≥ 1mg/ml) | SS (SS indicates solubility ≥ 1mg/ml) | SS (SS indicates solubility ≥ 1mg/ml) | 68 pM
CC[C@H](C)[C@@H](C(=O)N[C@@H](CC(C)C)C(=O)N[C@@H](CO)C(=O)N[C@@H](CO)C(=O)N[C@H](C(=O)N[C@@H](CC(N)=O)C(=O)N[C@H](C(=O)NCC(=O)N[C@@H](CO)C(=O)N[C@@H](CC(N)=O)C(=O)N[C@H](C(=O)N1CCC[C@H]1C(N)=O)[C@@H](C)O)C(C)C)[C@@H](C)O)N(C)C(=O)[C@H](C)NC(=O)CN(C)C(=O)[C@H](Cc1ccccc1)NC(=O)[C@H](CC(N)=O)NC(=O)[C@H](CC(N)=O)NC(=O)[C@H](CO)NC(=O)[C@H](CO)NC(=O)[C@H](Cc1c[nH]cn1)NC(=O)[C@H](Cc1c[nH]cn1)NC(=O)[C@H](CC(C)C)NC(=O)[C@H](Cc1ccccc1)NC(=O)[C@H](CCC(=O)O)NC(=O)[C@H](C)NC(=O)[C@H](CC(C)C)NC(=O)[C@H](CCCNC(=N)N)NC(=O)[C@H](CCC(N)=O)NC(=O)[C@@H](NC(=O)[C@H](C)NC(=O)[C@@H]1CSSC[C@H](NC(=O)[C@H](CN)NC(=O)CC[C@H](NC(=O)CCCCCCCCCCCCCCCCCCC(=O)O)C(=O)O)C(=O)N[C@@H](CC(N)=O)C(=O)N[C@@H]([C@@H](C)O)C(=O)N[C@@H](C)C(=O)N[C@@H]([C@@H](C)O)C(=O)N1)[C@@H](C)O [Compound 67, [19CD]-isoGlu-Dap-C()NTATC()ATQRLAEFLHHSSNNF-Gly(Me)-A-Ile(Me)-LSSTNVGSNTP-NH2] ({C20 diacid-γGlu}-[Dap]CNTATCATQRLAEFLHHSSNNF[Sar]A[NMeI]LSSTNVGSNTP-NH2; disulfide 2-7) | – | SS (SS indicates solubility ≥ 1mg/ml) | SS (SS indicates solubility ≥ 1mg/ml) | SS (SS indicates solubility ≥ 1mg/ml) | SS (SS indicates solubility ≥ 1mg/ml) | SS (SS indicates solubility ≥ 1mg/ml) | SS (SS indicates solubility ≥ 1mg/ml) | SS (SS indicates solubility ≥ 1mg/ml) | 190 pM
CC[C@H](C)[C@@H](C(=O)N[C@@H](CC(C)C)C(=O)N[C@@H](CO)C(=O)N[C@@H](CO)C(=O)N[C@H](C(=O)N[C@@H](CC(N)=O)C(=O)N[C@H](C(=O)NCC(=O)N[C@@H](CO)C(=O)N[C@@H](CC(N)=O)C(=O)N[C@H](C(=O)N1CCC[C@H]1C(N)=O)[C@@H](C)O)C(C)C)[C@@H](C)O)N(C)C(=O)CN(C)C(=O)[C@H](Cc1ccccc1)NC(=O)[C@@H](CC(N)=O)NC(=O)[C@H](CC(N)=O)NC(=O)[C@H](CO)NC(=O)[C@H](CO)NC(=O)[C@H](Cc1c[nH]cn1)NC(=O)[C@H](Cc1c[nH]cn1)NC(=O)[C@H](CC(C)C)NC(=O)[C@H](Cc1ccccc1)NC(=O)[C@H](CCC(=O)O)NC(=O)[C@H](C)NC(=O)[C@H](CC(C)C)NC(=O)[C@H](CCCNC(=N)N)NC(=O)[C@H](CCC(N)=O)NC(=O)[C@@H](NC(=O)[C@H](C)NC(=O)[C@@H]1CSSC[C@H](NC(=O)[C@H](CCCNC(=N)N)NC(=O)CC[C@H](NC(=O)CCCCCCCCCCCCCCCCCCC(=O)O)C(=O)O)C(=O)N[C@@H](CC(N)=O)C(=O)N[C@@H]([C@@H](C)O)C(=O)N[C@@H](C)C(=O)N[C@@H]([C@@H](C)O)C(=O)N1)[C@@H](C)O [Compound 36, [19CD]-isoGlu-RC()NTATC()ATQRLAEFLHHSSN-DAsn-F-Gly(Me)-Ile(Me)-LSSTNVGSNTP-NH2] ({C20 diacid-γGlu}-RCNTATCATQRLAEFLHHSSN[dN]F[Sar][NMeI]LSSTNVGSNTP-NH2; disulfide 2-7) | 170 pM | SS (SS indicates solubility ≥ 1mg/ml) | SS (SS indicates solubility ≥ 1mg/ml) | SS (SS indicates solubility ≥ 1mg/ml) | SS (SS indicates solubility ≥ 1mg/ml) | SS (SS indicates solubility ≥ 1mg/ml) | SS (SS indicates solubility ≥ 1mg/ml) | SS (SS indicates solubility ≥ 1mg/ml) | –
